The text below walks through data of patent US9006444B2, “Phenyl carboxamide-containing spleen tyrosine kinase (SYK) inhibitors” (Merck Sharp & Dohme Corp., priority 2011, dated 2015).

Like-named read-outs stand apart in the source and are kept apart here.

Data set [1] concerns the target T1, recombinant human GST-SYK (Homo sapiens, UniProt P43405).
T1 construct: purchased Carna Biosciences 08-176
Kind of data set: Homogeneous Time-Resolved Fluorescence (HTRF) Assay for the Recombinant Human Syk Enzyme. The class given is biochemical. The settings on record: GST-hSYK 5 pM, ATP 25 μM, 10-dose titration. On the procedure: Homogeneous Time-Resolved Fluorescence (HTRF) Assay for the Recombinant Human Syk Enzyme
A recombinant GST-hSYK fusion protein was used to measure potency of compounds to inhibit human Syk activity. […] Final volume of the reaction was 10 μL. Phosphorylation of the peptide was allowed to proceed for 45′ at room temperature. To quench the reaction and detect the phosphorylated product, 2 nM of a Europium-anti-phosphotyrosine antibody (Perkin Elmer #AD0161) and 70 nM SA-APC (Perkin-Elmer #CR130-100) were added together in 15 mM Tris pH 7.5, 40 mM EDTA, 0.01% tween 20. Final volume of the quenching solution was 10 μl. The resulting HTRF signal was measured after 30 minutes on an EnVision (Perkin-Elmer) reader using a time-resolved fluorescence protocol.
In general terms: Time-resolved FRET reads energy transfer from a long-lived donor to a nearby acceptor.

A further data set deals with PGD2. As to conditions: intranasal, phase I/II study, allergic rhinitis; cited from earlier work.
The conditions of data set [2]: phase II clinical trial, allergic rhinitis; cited from earlier work.

Take `COc1cccc(Nc2cc(N[C@@H]3CCCC[C@@H]3N)ccc2C(N)=O)n1` (relative stereo) [Example 1.2, rel-4-{[(1R,2S)-2-aminocyclohexyl]amino}-2-[(6-methoxypyridin-2-yl)amino]benzamide]: the IC50 in data set [1] (read-out: rhSYK Activity) was in the range of 1.5 to 15 nM. Still for that read-out and setting: the result for `NC(=O)c1ccc(N[C@@H]2CCCC[C@@H]2N)cc1Nc1cccc(-n2cccn2)n1` (relative stereo) [Example 1.3, rel-4-{[(1R,2S)-2-aminocyclohexyl]amino}-2-{[6-(1H-pyrazol-1-yl)pyridin-2-yl]amino}benzamide] reads 1.5 to 15 nM. Regarding `Cc1nc(Nc2cc(N[C@@H]3CCCC[C@@H]3N)ccc2C(N)=O)ccc1F` (relative stereo) [Example 1.4, rel-4-{[(1R,2S)-2-aminocyclohexyl]amino}-2-[(5-fluoro-6-methylpyridin-2-yl)amino]benzamide], the IC50 in data set [1] (read-out: IC50) was 23 nM; in data set [1] (read-out: rhSYK Activity) it was 15 to 50 nM. `NC(=O)c1ccc(N[C@@H]2CCCC[C@@H]2N)cc1Nc1cccc(N2CCOCC2)n1` (relative stereo) [Example 1.5, rel-4-{[(1R,2S)-2-aminocyclohexyl]amino}-2-[(6-morpholin-4-ylpyridin-2-yl)amino]benzamide]: the IC50 in data set [1] (read-out: rhSYK Activity) is 15 to 50 nM. On the same count and under the same terms, for `CCOc1cccc(Nc2cc(N[C@@H]3CCCC[C@@H]3N)ccc2C(N)=O)n1` (relative stereo) [Example 1.6, rel-4-{[(1R,2S)-2-aminocyclohexyl]amino}-2-[(6-ethoxypyridin-2-yl)amino]benzamide] the value was 1.5 to 15 nM; for `NC(=O)c1ccc(N[C@@H]2CCCC[C@@H]2N)cc1Nc1cccc(-c2ccccc2)n1` (relative stereo) [Example 1.7, rel-4-{[(1R,2S)-2-aminocyclohexyl]amino}-2-[(6-phenylpyridin-2-yl)amino]benzamide], below 1.5 nM; for `NC(=O)c1ccc(N[C@@H]2CCCC[C@@H]2N)cc1Nc1cccc(-c2ccncc2)n1` (relative stereo) [Example 1.8, rel-4-{[(1R,2S)-2-aminocyclohexyl]amino}-2-(2,4′-bipyridin-6-ylamino)benzamide], below 1.5 nM. For the molecule `COc1cccc(-c2cccc(Nc3cc(N[C@@H]4CCCC[C@@H]4N)ccc3C(N)=O)n2)c1` (relative stereo) [Example 1.9, rel-4-{[(1R,2S)-2-aminocyclohexyl]amino}-2-{[6-(3-methoxyphenyl)pyridin-2-yl]amino}benzamide], the IC50 was 1.3 nM in data set [1] (read-out: IC50) and below 1.5 nM in data set [1] (read-out: rhSYK Activity). The corresponding values for `Cn1cc(-c2cccc(Nc3cc(N[C@@H]4CCCC[C@@H]4N)ccc3C(N)=O)n2)cn1` (relative stereo) [Example 1.10, rel-4-{[(1R,2S)-2-aminocyclohexyl]amino}-2-{[6-(1-methyl-1H-pyrazol-4-yl)pyridin-2-yl]amino}benzamide] are 2 nM and 1.5 to 15 nM. On to `NC(=O)c1ccc(N[C@@H]2CCCC[C@@H]2N)cc1Nc1cccc(-c2cccc(F)c2)n1` (relative stereo) [Example 1.11, rel-4-{[(1R,2S)-2-aminocyclohexyl]amino}-2-{[6-(3-fluorophenyl)pyridin-2-yl]amino}benzamide], for which the IC50 in data set [1] (read-out: rhSYK Activity) is below 1.5 nM. The same measure, in the same setting: the result for `COc1ccccc1-c1cccc(Nc2cc(N[C@@H]3CCCC[C@@H]3N)ccc2C(N)=O)n1` (relative stereo) [Example 1.12, rel-4-{[(1R,2S)-2-aminocyclohexyl]amino}-2-{[6-(2-methoxyphenyl)pyridin-2-yl]amino}benzamide] reads below 1.5 nM; that for `COc1ccc(-c2cccc(Nc3cc(N[C@@H]4CCCC[C@@H]4N)ccc3C(N)=O)n2)cc1` (relative stereo) [Example 1.13, rel-4-{[(1R,2S)-2-aminocyclohexyl]amino}-2-{[6-(4-methoxyphenyl)pyridin-2-yl]amino}benzamide], below 1.5 nM. Still for that read-out and setting: for `NC(=O)c1ccc(N[C@@H]2CCCC[C@@H]2N)cc1Nc1cccc(-c2ccc(F)cc2)n1` (relative stereo) [Example 1.14, rel-4-{[(1R,2S)-2-aminocyclohexyl]amino}-2-{[6-(4-fluorophenyl)pyridin-2-yl]amino}benzamide] the value was 1.5 to 15 nM; for `NC(=O)c1ccc(N[C@@H]2CCCC[C@@H]2N)cc1Nc1ccc2ccccc2n1` (relative stereo) [Example 1.15, rel-4-{[(1R,2S)-2-aminocyclohexyl]amino}-2-(quinolin-2-ylamino)benzamide], 1.5 to 15 nM. With `NC(=O)c1ccc(N[C@@H]2CCCC[C@@H]2N)cc1Nc1cccc(-c2ccc(F)c(F)c2)n1` (relative stereo) [Example 1.16, rel-4-{[(1R,2S)-2-aminocyclohexyl]amino}-2-{[6-(3,4-difluorophenyl)pyridin-2-yl]amino}benzamide], the results for the IC50 in data set [1] (read-out: IC50) and in data set [1] (read-out: rhSYK Activity) were 1.6 nM and 1.5 to 15 nM, respectively.

Turning to `NC(=O)c1ccc(N[C@@H]2CCCC[C@@H]2N)cc1Nc1cccc(-n2cccc2)n1` (relative stereo) [Example 1.17, rel-4-{[(1R,2S)-2-aminocyclohexyl]amino}-2-{[6-(1H-pyrrol-1-yl)pyridin-2-yl]amino}benzamide], the IC50 in data set [1] (read-out: rhSYK Activity) was below 1.5 nM. Same read-out and setting: for `Cc1cccc(Nc2cc(N[C@@H]3CCCC[C@@H]3N)ccc2C(N)=O)n1` (relative stereo) [Example 2, rel-4-{[(1R,2S)-2-aminocyclohexyl]amino}-2-[(6-methylpyridin-2-yl)amino]benzamide] the value was 15 to 50 nM. For the molecule `Oc1cccc(Nc2ncc(F)c(Nc3cccc(O)c3)n2)c1` [Example R112], in the data set with PGD2, the “change in PGD2” value is listed as “statistically significant decrease” and the clinical safety result is “safe across a range of indicators”. The efficacy versus placebo result in data set [2] is on record as “lack of efficacy versus placebo”.
